This test deals with Male rats. Kind of test: Sleep-wake cycle analysis by telemetric EEG recording (23 hours) in rats. As to conditions: for latency to SWS onset (change): FIG. 1A; for latency to REM sleep onset (change): FIG. 1B. The format is in vivo, rat. The method, then: Male rats were anesthetized and surgically implanted with 2 surface electrodes in the frontoparietal cortex and 2 depth electrodes in the CA1 region of the hippocampus (AP+5.0 mm, L±2.5 mm, V+7.0 mm). After ≥10 days recovery, telemetric transmitters were connected to electrodes for electroencephalographic (EEG) recordings. On the day of experiment, rats were injected at the beginning of the light phase with rapastinel (3, 10, or 30 mg/kg, IV), ketamine (30 mg/kg, IP), or the positive control zolpidem (12 mg/kg, PO) using a treatment schedule based on a cross-over design (n=9-10/dose/group) in which rats received zolpidem or rapastinel at session 1 and then rapastinel and/or ketamine at sessions 2-4. Physiological saline was used as the vehicle control
Sleep-wake cycles were measured continuously following rapastinel treatment for the next 23 hours and were analyzed based on a spectral power analysis. Latencies to first occurrence of SWS and REM sleep, as well as percent time spent in SWS, REM sleep, and wakefulness, were calculated for the total recording sessions (23 hours), the half cycles (0-12 and 12-23 hours), and 5 time segments (0-4, 4-8, 8-12, 12-18, and 18-23 hours). Depth of SWS (defined as the ratio between alpha and delta spectral power) was also calculated. Differences between vehicle and test drugs were calculated for all variables, for each animal, and for the means of the animals per treatment group, and analyzed using a paired t-test

The mark [1] stands for this setting: ketamine 30 mg/kg IP, 12-23 hours post-dose, P<0.05.
The mark [2] stands for this setting: rapastinel, entire recording session, FIG. 2.

Structures are written as SMILES. Residues, ends and D or L forms follow the SMILES beside them.

Turning to `CNC1(c2ccccc2Cl)CCCCC1=O` (centres unmarked) [Ketamine, ketamine], the “alpha/delta ratio (depth of SWS)” value (ketamine 30 mg/kg IP, 0-4 hours post-dose) is recorded as “concomitant decrease”. For the same molecule, the “duration of SWS” value (ketamine 30 mg/kg IP, 0-4 hours post-dose, FIG. 2A) is “decreased”. Moreover, the “duration of REM sleep” value (ketamine 30 mg/kg IP, 0-4 hours post-dose, P<0.001) was “decreased”. The “waking (duration)” value (ketamine 30 mg/kg IP, 12-23 hours post-dose, P<0.01) was “small but significant decrease”. Under setting [1], the “REM sleep (duration)” value is on record as “compensatory increase”, the SWS duration result was “significantly increased” and the “percentage of active waking” value is listed as “significantly decreased”. Moreover, under “ketamine 30 mg/kg IP, P<0.001”, the “latency to SWS onset (change)” value is “+393%” and the “latency to REM sleep onset (change)” value was “+104%”. Also, the duration of waking entry (ketamine 30 mg/kg IP, first 4 hours post-dose, P<0.001) is reported as “significantly increased”.

Take `C[C@@H](O)[C@H](N)C(=O)N1CCC[C@H]1C(=O)N1CCC[C@H]1C(=O)N[C@H](C(N)=O)[C@@H](C)O` [Rapastinel, rapastinel] (H-TPPT-NH2): the “latency to SWS onset (change)” value (rapastinel 3 mg/kg IV, P<0.05) was −33%. In addition, the “percentage of active waking” value (rapastinel 30 mg/kg IV, 8-12 hours post-dose, P<0.01) is “small but significant decrease”; the “percentage of active waking” value (rapastinel 30 mg/kg IV, 18-23 hours post-dose, P<0.05) was “small but significant decrease”; the “percentage of active waking” value (rapastinel, all doses and time segments other than the 30 mg/kg exceptions, FIG. 4B) was “no effect”. The “latency to REM sleep onset” value (rapastinel 3, 10, and 30 mg/kg IV) is listed as “no significant effect”. The “duration of REM sleep” value (rapastinel 3, 10, and 30 mg/kg IV, FIG. 3) is on record as “did not have a significant effect”. Also, the duration of waking entry (rapastinel 3, 10, or 30 mg/kg IV, FIG. 4A) is reported as “no effect”. Further, under “rapastinel 10 and 30 mg/kg IV”, the “latency to SWS onset” value is “no significant effect”. Under setting [2], the “depth of SWS” value is “no significant effect”. The “duration of SWS” value under setting [2] is recorded as “no significant effect”.

`Cc1ccc(-c2nc3ccc(C)cn3c2CC(=O)N(C)C)cc1` [Zolpidem, zolpidem]: for the setting “zolpidem 12 mg/kg PO, 0-12 hours post-dose, P<0.05”, the “percentage of active waking” value is listed as “significantly decreased”. Further, the “duration of REM sleep” value (zolpidem 12 mg/kg PO, 4-8 hours post-dose, P<0.05) was “significantly decreased”. Moreover, the “depth of SWS” value (zolpidem 12 mg/kg PO, >8 hours post-dose, P<0.05, FIG. 2B) is “significantly increased”. For the same molecule, under “zolpidem 12 mg/kg PO, FIG. 4A”, the duration of waking entry is on record as “no effect”. Also, for the setting “zolpidem 12 mg/kg PO, P<0.01”, the “latency to REM sleep onset (change)” value is given as “+67%”. In addition, the “latency to SWS onset (change)” value (zolpidem 12 mg/kg PO, P<0.05) is reported as −50%.

Values taken from patent US20200197365A1, “TREATMENT WITH NMDA RECEPTOR MODULATORS” (Naurex Inc., priority 2017, published 2020).
